From paper PMC6368365, “Didehydro-Cortistatin A Inhibits HIV-1 by Specifically Binding to the Unstructured Basic Region of Tat” (mBio, 2019)

Target: T1, FLAG-tagged Rev (Human immunodeficiency virus type 1 group M subtype B, UniProt P04618)
T1 construct: expressed in transfected cells; host or cells: HeLa-CD4-LTR-Luc
Assay: Confocal immunofluorescence of FLAG-Rev subcellular localization
Type: cell-based, HIV-1
Settings: 100 nM dCA, HeLa-CD4-LTR-Luc cells
From the text: If dCA were to bind the basic domain of Tat in its disordered form, then one would predict it might also bind to other basic peptide sequences and block their functions. The two well-known proteins that share a similar basic domain with Tat are HIV-1 Rev protein and the cellular protein Hexim-1 (Fig. 3A). As such, we investigated whether dCA could inhibit these similar basic domain functions. The basic domain of Rev is responsible for its nuclear localization ([31]); therefore, we assessed whether dCA could impact the subcellular localization of Rev (Fig. 3B) as previously shown for Tat ([10]). We transfected HeLa-CD4-LTR-Luc cells with a plasmid expressing FLAG-tagged Rev and assessed Rev localization in the presence of 100 nM dCA. […] Twenty-four hours later, cells were collected, and total, nuclear, and cytoplasmic mRNAs were extracted, reverse transcribed, and quantified by quantitative real-time PCR (qRT-PCR).
(A) Sequence of the basic domains of HIV Tat HXB3, HIV Rev Bru and intracellular Hexim-1. […] (C) Quantification of the nucleolar fluorescence of panel B using ImageJ. […] Total, nuclear, and cytoplasmic mRNAs were extracted, and viral messages were determined by qRT-PCR. […] (G) Quantification of nuclear fluorescence of panel F using ImageJ. […] Statistical significance was determined using one-way ANOVA with post hoc Tukey’s test. ns, not significant; ***, P < 0.0001; **, P < 0.001. […]

T1 sequence (P04618 whole entry, looked up): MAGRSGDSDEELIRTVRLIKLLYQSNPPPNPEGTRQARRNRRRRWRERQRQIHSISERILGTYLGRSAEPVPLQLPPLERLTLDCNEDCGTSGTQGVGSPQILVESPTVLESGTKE

CN(C)C1CC23CCC4(O2)C(=CCC2(C)C(c5ccc6ccncc6c5)=CCC24)C=C3C(O)C1O (stereo not shown) [dCA, didehydro-cortistatin A]
subcellular localization of Rev: localization of Rev was left unchanged
